Measured values reported in patent US20230120205A1, “NERVE CELL DEGENERATION INHIBITOR” (KYOTO UNIVERSITY, priority 2020, published 2023).

Test system: ALS7 (C9orf72) cell-derived motor neurons
Assay: RNA foci inhibitory activity (FISH with Cy3 probe, high-content analysis)
Assay type: cell-based, human
Conditions: one day after addition, vs DMSO
Text: Using ALS7 (C9orf72) cell line described in K. Imamura et al, Science Translational Medicine 2017, 9, eaaf3962, the effect of the compound used in the present invention on RNA foci was examined. The cell line is stable cell line prepared by introducing the tetracycline-induced Lhx3, Ngn2 and Isl1 genes into iPS cell lines established from a familial ALS patient with abnormal expansion of the G4C2 repeat of the C9orf72 gene. Therefore, ALS7 (C9orf72) cell is an ALS cell model that rapidly (within about 7 days) differentiates into motor neurons when tetracycline or a derivative thereof is added to the medium, and after differentiation, spontaneously goes on to cell death (see the above documents). […] ALS7 (C9orf72) cells were cultured on feeder cells (mitomycin-treated SNL cells) using an iPS cell maintenance medium consisting of Primate ES Cell medium (ReproCell, […]), 4 ng/ml hbFGF (Wako, 060-04543), 50 μg/ml G418 (Nacalai, 09380-86) and Penicillin-Streptomycin (Thermo Fisher Scientific, 15140-122). The method for seeding ALS7 (C9orf72) cells on an assay plate is as follows. Matrigel (BD Falcon, D2650) was diluted 20-fold with an assay medium consisting of DMEM/F-12 (1:1) (Thermo Fisher Scientific, 11330-057), N2 supplement (Thermo Fisher Scientific, 17502-048), Penicillin-Streptomycin (Thermo Fisher Scientific, 15140-122), 10 ng/ml recombinant human BDNF (PeproTech, 450-02), 10 ng/ml recombinant human GDNF (PeproTech, 450-10), 10 ng/ml recombinant human NT-3 (PeproTech, 450-03), 1 μM Retinoic acid (Sigma, R2625), 1 μg/ml Doxycycline (Clontech, 631311), 1 μM SAG (Enzo life sciences, ALX-270-426-M001) and 10 μ[…] (Wako, 253-00513), and then a 384-well plate (CellCarrier-384 Ultra, PerkinElmer, 6057300) was coated with the diluted solution. The ALS7 (C9orf72) cells were then suspended in the assay medium, and seeded on the matrigel-coated assay plate at 1×10^4 cells per well. The fluorescent staining method of RNA foci in motor neurons differentiated from ALS7 (C9orf72) cells is as follows. For the ALS7 (C9orf72) cells seeded on the assay plate according to the method described in the previous section, the assay medium containing no Y-27632 was added to the plate four days after seeding, and the cells were cultured. Seven days after seeding, the assay medium (Retinoic Acid, Doxycycline, SAG, Y-27632-free) containing the test compound at a predetermined concentration was added to the plate by medium exchange, and one day after addition of the test compound, PFA (Wako, 163-20145) was added to the plate to fix the cells. After washing with PBS (Wako, 045-29795) was repeated three times, ice-cold methanol (Wako, 131-01826) was added to the plate, and the plate was allowed to stand for 10 minutes at room temperature. DNA probe [[NT] ID NO:1), SIGMA genosys, custom synthesis] was denatured at 80° C. for 75 sec, prepared to 2 μg/μL in a hybri buffer consisting of 50% formamide (Wako, 066-02301), 2×SSC (Nippon Gene, 319-90015), 50 mM sodium phosphate (TEKNOVA, […]), 10% Dextran sulfate (SIGMA, […]), 0.1 mg/mL yeast tRNA ([…], 15401029) and RNase free water (QIAGEN, 129112), and added to the plate, and the plate was allowed to stand at 37° C. for 16 to 24 hrs to bind the probe to the RNA foci. A wash buffer consisting of 50% formamide, 1×SSC and RNase free water was added to the plate, and the plate was allowed to stand at 37° C. for 30 minutes, followed by washing with PBS. Hoechst (invitrogen, H3569) diluted 5000-fold with by PBS was added to the plate, and the plate was allowed to stand for 20 minutes at room temperature to stain the cell nuclei, followed by washing with PBS. The RNA foci in the cell nuclei were detected by analyzing the above treated plate (measuring Cy3 fluorescence) with a high-content analyzer. The high-content analyzer used was Opera Phenix from PerkinElmer. […] The method for detecting the activity of the test compound is as follows.

NS(=O)(=O)Cc1cccc(Nc2ncnc(-c3ccccc3OCc3ccccc3)n2)c1.O=C(O)C(F)(F)F [Compound No. 4a, 1-[3-({4-[2-(benzyloxy)phenyl]-1,3,5-triazin-2-yl}amino)phenyl]methanesulfonamide trifluoroacetate]
RNA foci inhibitory activity % (1 μM test compound): 50% | RNA foci inhibitory activity % (3 μM test compound): 45% | RNA foci inhibitory activity % (10 μM test compound): 45%

COc1ccccc1-c1ncnc(Nc2cccc(CS(N)(=O)=O)c2)n1 [Compound No. 2, 1-(3-{[4-(2-methoxyphenyl)-1,3,5-triazin-2-yl]amino}phenyl)methanesulfonamide]
RNA foci inhibitory activity % (1 μM test compound): 20% | RNA foci inhibitory activity % (3 μM test compound): 49% | RNA foci inhibitory activity % (10 μM test compound): 55%

COc1cc(F)ccc1-c1ncnc(Nc2cccc(CS(C)(=N)=O)c2)n1 (stereo not drawn) [Compound No. 1, 4-(4-fluoro-2-methoxyphenyl)-N-{3-[(S-methanesulfonimidoyl)methyl]phenyl}-1,3,5-triazin-2-amine]
RNA foci inhibitory activity % (1 μM test compound): 48% | RNA foci inhibitory activity % (3 μM test compound): 58% | RNA foci inhibitory activity % (10 μM test compound): 46%

CS(=N)(=O)Cc1cccc(Nc2ncnc(-c3ccccc3OCc3ccc(Cl)c(Cl)c3)n2)c1 (stereo not drawn) [Compound No. 5, 4-{2-[(3,4-dichlorophenyl)methoxy]phenyl}-N-{3-[(S-methanesulfonimidoyl)methyl]phenyl}-1,3,5-triazin-2-amine]
RNA foci inhibitory activity % (1 μM test compound): 61% | RNA foci inhibitory activity % (3 μM test compound): 44% | RNA foci inhibitory activity % (10 μM test compound): 50%

NS(=O)(=O)Cc1cccc(Nc2ncnc(-c3ccccc3OCc3ccccc3)n2)c1 [Compound No. 4b, 1-[3-({4-[2-(benzyloxy)phenyl]-1,3,5-triazin-2-yl}amino)phenyl]methanesulfonamide]
RNA foci inhibitory activity % (1 μM test compound): 52% | RNA foci inhibitory activity % (3 μM test compound): 41% | RNA foci inhibitory activity % (10 μM test compound): 47%

COc1cc(Cl)ccc1-c1ncnc(Nc2cccc(CS(N)(=O)=O)c2)n1 [Compound No. 3, 1-(3-{[4-(4-chloro-2-methoxyphenyl)-1,3,5-triazin-2-yl]amino}phenyl)methanesulfonamide]
RNA foci inhibitory activity % (1 μM test compound): 16% | RNA foci inhibitory activity % (3 μM test compound): 55% | RNA foci inhibitory activity % (10 μM test compound): 51%

CCOC(=O)N=S(C)(=O)Cc1cccc(Nc2ncnc(-c3cccc4c3OCCO4)n2)c1 (stereo not drawn) [Compound No. 6, ethyl {[(3-{[4-(2,3-dihydro-1,4-benzodioxin-5-yl)-1,3,5-triazin-2-yl]amino}phenyl)methyl](methyl)oxo-λ^6-sulfanylidene}carbamate]
RNA foci inhibitory activity % (1 μM test compound): 62% | RNA foci inhibitory activity % (3 μM test compound): 48% | RNA foci inhibitory activity % (10 μM test compound): 48%

CCOC(=O)N=S(C)(=O)Cc1cccc(Nc2ncnc(-c3cccc4c3OCC4)n2)c1 (stereo not drawn) [Compound No. 7, ethyl {[(3-{[4-(2,3-dihydro-1-benzofuran-7-yl)-1,3,5-triazin-2-yl]amino}phenyl)methyl](methyl)oxo-λ^6-sulfanylidene}carbamate]
RNA foci inhibitory activity % (1 μM test compound): 47% | RNA foci inhibitory activity % (3 μM test compound): 55% | RNA foci inhibitory activity % (10 μM test compound): 43%
